Assays:
[1] = system: Paneth cells in ENR+CD organoids; assay: Flow cytometry of 3D-cultured intestinal organoids, Paneth cells (lysozyme-positive, CD24-positive); assay type: cell-based, mouse
Source text: Flow cytometry analysis (3D culture). ISC-enriched organoids cultured in 3D Matrigel with ENRCV media were passaged to 24-well plate in 3D Matrigel with ENRCV. At day zero, media were replaced to ENRCD with or without indicated compounds, and media were replaced every other day. At day six, cells were washed with basal media, and then harvested from Matrigel by mechanical disruption in TrypLE Express (ThermoFisher, 12605010) to remove Matrigel and dissociate organoids to single cells. After vigorous pipetting and incubation at 37° C. for 20 min, dissociated organoids were strained through a 35 μm cell strainer into a tube (Falcon, 352235). […] Cell pellets were resuspended in FACS buffer (2% FBS in PBS), and then transferred to an ultra low-bind 96-well plate (Corning, 7007). Cells were stained with Zombie-violet viability dye (BioLegend, 423107) at 100× for viability staining and/or antibody staining solution. FITC-conjugated antibody for lysozyme (Dako, F0372) and APC-conjugated antibody for CD24 (BioLegend, 138505) were used at 100× dilution. Flow cytometry was performed using an LSR Fortessa (BD; Koch Institute Flow Cytometry Core at MIT). The data were analyzed using FlowJo v10 software.
The results of primary and secondary screening reflect a mixture of potential effects arising from small molecule treatment which may result in increases in total LYZ secretion. This includes contributions from enhanced Paneth cell differentiation, altered Paneth cell activity and changes in total cell number concurrent with differentiation. To better inform how the 6 compounds identified in the screen increased total secreted LYZ, and to isolate only those which enhance Paneth differentiation robustly, Applicants next utilized flow cytometry to measure the changes in Paneth cell representation within the treated organoids. […] Single live cells were selected by several gating strategies and Paneth cells were identified as lysozyme-high, CD24-mid, side scatter-high (SSC-high) (FIG. 27E). […] To evaluate whether the culture media supplements C and D may alter the effects of the 6 hits, Applicants also performed lysozyme assay in the canonical ENR culture condition in 3-D (because Paneth cells exist in an immature state within ENR, Applicants were unable to robustly quantify Paneth cell number via flow cytometry).
Flow cytometry. ISC-enriched organoids in 3D Matrigel culture were passaged to a 48-well plate and induced differentiation for 6 days by ENR+CD media containing DMSO or each drug indicated in the figures. DMSO- or drug-containing media were changed every other day. On day 6, cells were washed twice with basal media, then harvested from Matrigel by the mechanical disruption in TrypLE Express (Thermo, #12605010) to remove Matrigel and dissociate organoids to single cells. After vigorous pipetting and incubation at 37° C. for 15 min, the cell solution was diluted twice with basal media and centrifuged at 300 ref for 3 min. The cell pellet was resuspended in FACS buffer (PBS containing 2% FBS) and replaced into a 96-well Clear Round Bottom Ultra-Low Attachment Microplate (Corning, #7007). The cell solution was centrifuged again at 300 rcf for 3 min at 4° C. to pellet the cells. Cells were stained with Zombie-violet dye (BioLegend, #423113) at 100× for viability staining for 20 min at RT in the dark. After centrifugation for 3 min at 300 rcf, cells were fixed in fixation buffer (FACS buffer containing 1% formaldehyde (Thermo, #28906)) for 15 min on ice in the dark. Cells were centrifuged again for 3 min at 300 rcf and blocked with staining buffer (FACS buffer containing 0.5% Tween20 (Sigma, P2287)) for 15 min at RT in the dark. Pelleted cells by the centrifugation for 3 min at 300 rcf are stained with FITC-conjugated anti-lysozyme antibody (Dako, F0372) and APC-conjugated anti-CD24 antibody (Biolegend, #138505) at 100× for 45 min at RT in the dark.

[2] = system: Paneth, goblet and cycling cells of small intestine; assay: KPT-330 treatment in vivo (Example 1), histology of proximal and distal small intestine; design: cycling cell number, distal small intestine: dose or concentration left out as unconfirmed
[3] = 2-day treatment within 6-day ENR+CD differentiation, read at day 6

## O=C(/C=C\n1cnc(-c2cc(C(F)(F)F)cc(C(F)(F)F)c2)n1)NNc1cnccn1 [KPT-330]
[1]; [3]
  enrichment in mature Paneth cells, treatment day 0-2: greatest enrichment in mature Paneth cells
  enrichment in mature Paneth cells, treatment day 2-4: moderate enrichment
  enrichment in mature Paneth cells, treatment day 4-6 (by flow cytometry): no different than untreated
[1]; ENR+CD + KPT-330 vs control
  increase in mature Paneth cells at day 6 of differentiation: 2 fold
[1]; most potent dose from 2.5-D screening, ENR+CD 6 days, 3-D culture
  mature Paneth cell population within organoids: significantly enhanced the mature Paneth cell population
[2]; high dose
  Paneth cell number, distal small intestine: decreased Paneth cells
[2]; low dose
  cycling cell number, distal small intestine: significant increase in cycling cell number
[2]; oral gavage, 1 week
  Paneth cell number, proximal small intestine: no significant shift in Paneth cell number
  effect by histology: pro-differentiation effect
  goblet cell numbers, proximal/distal small intestine: no significant shift in goblet cell numbers

— patent publication US20220323406A1, “METHODS AND COMPOSITIONS FOR DIFFERENTIATING STEM CELLS” (Massachusetts Institute of Technology, priority 2019, published 2022)
